From PubChem BioAssay (NCI) come the findings set out here.

Where “and” joins values, the source holds several entries; their conditions need not be identical. Identical values can stand only once.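 Each compound was tested at five concentrations against cells in 96-well plates for 48 hours. The concentration for 50% growth inhibition is given as GI50. TGI is the concentration that stops growth completely.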

Some test systems named below: SR leukemia; OVCAR-4 ovarian; COLO 205 colon; CAKI-1 renal; SF-295 CNS; LOX IMVI melanoma; NCI-H23 lung; SK-MEL-2 melanoma; NCI-H522 lung; RXF 393 renal.
Common to all, as to assay: inhibition of tumour cell growth, NCI panel, 48 h

`O=C(Nc1ccc(Br)cc1)c1ccc(Cl)c(Cl)c1`: the GI50 was 4.35 µM in the experiment with SR leukemia; 3.78 µM with OVCAR-4 ovarian; 1.81 µM in the experiment on COLO 205 colon; 1.51 µM in the experiment with CAKI-1 renal; 2.03 µM in the experiment with SF-295 CNS; 2.56 µM with LOX IMVI melanoma. Besides, the GI50 with NCI-H23 lung was 2.32 µM; in the experiment with SK-MEL-2 melanoma, 3.59 µM; in the experiment with NCI-H522 lung, 2.75 µM; in the experiment on RXF 393 renal, over 28 µM. The TGI with SR leukemia is over 100 µM; in the experiment with OVCAR-4 ovarian it was over 100 µM; with COLO 205 colon it was 3.7 µM; in the experiment with CAKI-1 renal, 4.58 µM; in the experiment on SF-295 CNS, 4.94 µM; in the experiment with LOX IMVI melanoma it was 7.67 µM. Also, the TGI in the experiment on NCI-H23 lung is 7.32 µM; in the experiment on SK-MEL-2 melanoma, over 29.8 µM; with NCI-H522 lung, 16.2 µM; in the experiment with RXF 393 renal, over 100 µM.

`COc1ccc2[nH]c3c4c(ccc3c2c1)C(=O)C=CC4=O`: the TGI with SR leukemia was 2.79 µM; with OVCAR-4 ovarian it was 28.6 µM; in the experiment with COLO 205 colon, 15.6 µM; in the experiment with CAKI-1 renal, 14.4 µM; in the experiment on SF-295 CNS it was 53.9 µM; in the experiment on LOX IMVI melanoma it was 24.1 µM. In addition, the TGI with NCI-H23 lung came to 30.2 µM; with SK-MEL-2 melanoma it was 28.5 µM; with NCI-H522 lung it was 3.66 µM; in the experiment on RXF 393 renal, 6.88 µM.

Take `Cc1c(C2=C(Br)C(=O)N(C)C2=O)c(=O)n(C)c(=O)n1C`: the TGI in the experiment on SR leukemia was 75.9 µM; with OVCAR-4 ovarian, over 100 µM; in the experiment on COLO 205 colon, 34.5 µM; in the experiment on CAKI-1 renal, 34.8 µM; with SF-295 CNS, over 100 µM; in the experiment with LOX IMVI melanoma, 32.3 µM. Also, the TGI in the experiment with NCI-H23 lung was determined as 42.9 µM; with SK-MEL-2 melanoma, 35.2 µM; in the experiment with NCI-H522 lung it was 29.5 µM; with RXF 393 renal it was 29 µM.

Regarding `CC1(C)O/C(=C\c2ccccc2)C(=O)/C(=C/c2ccccc2)O1`, the TGI is 75.3 µM with SR leukemia; over 100 µM in the experiment with OVCAR-4 ovarian; over 100 µM with COLO 205 colon; over 100 µM in the experiment with CAKI-1 renal; over 100 µM with SF-295 CNS; over 100 µM with LOX IMVI melanoma. In addition, the TGI in the experiment on NCI-H23 lung is over 100 µM; in the experiment on SK-MEL-2 melanoma it was 56.7 µM; with NCI-H522 lung, 22.5 µM; in the experiment on RXF 393 renal, 47.6 µM.

`CC(C)CNC(=O)O`: the TGI with SR leukemia, with OVCAR-4 ovarian, with COLO 205 colon, in the experiment on CAKI-1 renal, with SF-295 CNS and in the experiment on LOX IMVI melanoma was over 100 µM each time. Further, the TGI in the experiment with NCI-H23 lung, in the experiment on SK-MEL-2 melanoma, with NCI-H522 lung and in the experiment on RXF 393 renal was over 100 µM in each case.

For the compound `COc1ccc2c(c1)[C@@]13CCCC[C@H]1[C@@H](C2)N(C)CC3=O`, the TGI in the experiment with SR leukemia is 42 µM; in the experiment with OVCAR-4 ovarian it was 33.3 µM; in the experiment on COLO 205 colon, 31.2 µM; in the experiment with CAKI-1 renal, over 100 µM; in the experiment on SF-295 CNS, over 100 µM; in the experiment with LOX IMVI melanoma it was 30.9 µM. In addition, the TGI in the experiment with NCI-H23 lung is 31.8 µM; in the experiment on SK-MEL-2 melanoma, 53.9 µM; in the experiment on NCI-H522 lung, 32.9 µM; with RXF 393 renal, 29.1 µM.

For `N#CC(=NCCO)C1=C(O)c2ccccc2C1=O`, the TGI in the experiment with SR leukemia, with OVCAR-4 ovarian, in the experiment with COLO 205 colon, in the experiment with CAKI-1 renal, in the experiment with SF-295 CNS and with LOX IMVI melanoma was over 100 µM throughout. In addition, the TGI in the experiment with NCI-H23 lung, in the experiment with SK-MEL-2 melanoma, in the experiment with NCI-H522 lung and in the experiment on RXF 393 renal was over 100 µM each time.

As to `Oc1cn(-c2ccc(Cl)cc2)nc1-c1n[nH]c(=S)n1C1CCCCC1`, the GI50 with SR leukemia is under 0.0413 µM; in the experiment with OVCAR-4 ovarian it was 31.8 µM; in the experiment with COLO 205 colon, 64.8 µM; in the experiment on CAKI-1 renal it was 0.389 µM; with SF-295 CNS, under 0.0447 µM; in the experiment on LOX IMVI melanoma, 0.451 µM. Besides, the GI50 in the experiment with NCI-H23 lung is 0.322 µM; in the experiment on SK-MEL-2 melanoma, over 52.3 µM; with NCI-H522 lung it was 0.373 µM; with RXF 393 renal, over 24.6 µM. The TGI in the experiment on SR leukemia was over 100 µM; in the experiment with OVCAR-4 ovarian, over 100 µM; in the experiment with COLO 205 colon it was over 100 µM; with CAKI-1 renal it was over 100 µM; with SF-295 CNS it was 0.479 µM; in the experiment on LOX IMVI melanoma it was over 100 µM. Moreover, the TGI with NCI-H23 lung was 1.98 µM; in the experiment on SK-MEL-2 melanoma it was over 100 µM; in the experiment on NCI-H522 lung it was over 100 µM; in the experiment on RXF 393 renal it was over 100 µM.

In the case of `COc1cc2c(c(OC)n1)[C@]1(O)[C@H](O)[C@H](CN(C)C)[C@@H](c3ccccc3)[C@]1(c1ccc(C#N)cc1)O2`, the GI50 in the experiment on SR leukemia was 0.0246 µM and < 0.0114 µM; with OVCAR-4 ovarian, 0.0371 µM and 0.0251 µM; with COLO 205 colon, 0.0114 µM and < 0.0111 µM; with CAKI-1 renal, 0.0276 µM and 0.0178 µM; with SF-295 CNS, 0.0212 µM and 0.0231 µM; with LOX IMVI melanoma, under 0.01 µM. Also, the GI50 in the experiment with NCI-H23 lung was 0.0182 µM and 0.0111 µM; with SK-MEL-2 melanoma it was 0.0319 µM and 0.034 µM; in the experiment with NCI-H522 lung it was 0.0257 µM and 0.0212 µM; in the experiment on RXF 393 renal, 0.0359 µM and 0.0195 µM. For the same compound, the TGI was 4.48 µM with SR leukemia; 3.72 µM and 5.27 µM with OVCAR-4 ovarian; 0.0442 µM and 0.0572 µM in the experiment with COLO 205 colon; 1.68 µM and 4.38 µM in the experiment on CAKI-1 renal; 0.811 µM and 1.84 µM in the experiment with SF-295 CNS; 0.0153 µM and 0.0133 µM with LOX IMVI melanoma. The TGI with NCI-H23 lung was 1.76 µM and 1.03 µM; in the experiment with SK-MEL-2 melanoma, 0.318 µM and 0.369 µM; with NCI-H522 lung, 1.15 µM and 2.24 µM; in the experiment on RXF 393 renal, 0.502 µM and 0.103 µM.
